Where a name gives a salt, the structure may show the parent alone.
Tests used:
CT26 cells [1] = test: Inhibition of proliferation of CT26 cells (CellTiter-Glo); type: cell-based, mouse; settings: for IC50: Mus musculus, 120 hours, CellTiter-Glo
Description: CT26 cell is a mouse colorectal cancer cell line. This assay used the CellTiter-Glo Luminescence Cell Vitality Assay kit from Promega to evaluate the inhibitory activity of the compounds on the proliferation of CT26 cells.
In thawing the CT26 cells (ATCC #CRL-2638), a cell freezing tube was quickly shaken in a water bath at 37° C. to thaw the cells within 1 min. The thawed cell suspension was taken and evenly mixed with DMEM medium (GE, Cat #SH30243.01) containing 10% FBS (GIBCO, Cat #10099-141), centrifuged for 5 min at 1000 rpm, and the supernatant was discarded. The cell pellet was resuspended in 5 mL of the complete medium (DMEM medium containing 10% FBS), placed into a cell culture flask with a bottom area of 25 cm^2, and incubated in a cell incubator at 37° C., 5% CO2 and 95% humidity. When the cell confluence reached 70%˜80%, the cells were passaged. All the cells in the culture flask were transferred to a 15 mL centrifuge tube, centrifuged for 5 min at 1000 rpm, and the supernatant was discarded. 5 mL of fresh complete medium was added to re-suspend the cell pellet, 1 mL of which was taken to place in a cell culture flask with a bottom area of 25 cm^2, supplemented with 4 mL of fresh complete medium for further incubation. When the cell confluence reached 70%-80% again, plating was conducted following the procedure of cell passage, retaining 1/5 cell suspension for further inculation and remaining 4/5 of the cell suspension in a 15 mL centrifuge tube.
The cell suspension was centrifuged to discard the old culture medium, washed once using DMEM medium (serum-free), and centrifuged to remove the supernatant. The cells were then re-suspended in DMEM medium (serum-free). Cell viability was then detected by Trypan blue exclusion test and to be used for plating when the cell viability was confirmed to be more than 95%. A cell suspension with a density of 1.1×10^4 viable cells/mL was prepared using DMEM medium (serum-free), and 90 μL of the cell suspension was added to a 96-well 96-well transparent flat-bottomed black-walled cell culture plate (Corning, Cat #3603) so that the cell density in the plate was 1000 viable cells/well. A control group containing no cells, no compound, and complete medium only (i.e., a culture medium control), and a control group containing no compound but cells (i.e., a cell control) were set. The cell plates were placed in a cell incubator overnight.
(§1) A 10 mM stock solution of the compounds in DMSO was first serially diluted at 3.16-fold with DMSO (Sigma, Cat #D2650) to the 9th concentration, and the 10th concentration was set as DMSO control (compound-free). Then, the DMSO solutions containing different concentrations of the compounds were diluted at 10-fold with PBS (Solarbio, Cat #P1020) so that the DMSO content in each compound solution of various concentrations was 10%. Finally, 10 μL of each of such solutions was added into corresponding cell culture plate to provide an initial compound concentration of 100 μM, with the dilution fold of adjacent concentrations being 3.16 and the DMSO content in the cell culture plate being 1%. The cell plate was placed in a cell incubator for further 120 hours.
After 120 hours, the CellTiter-Glo reagent (Promega, Cat #G7572) was thawed and the plates were equilibrated at room temperature for 30 min. 100 uL of CellTiter-Glo was added to each well of the plate, and the cells were lysed thoroughly by shaking on an orbital shaker for 5 min. The plates were placed at room temperature for 20 min to stabilize the luminescence signal, and the luminescence value of each well was scanned at full wavelength with a multifunctional microplate reader (Molecular Devices, Spectramax M3). […]

[2] = system: IFN-β secretion by THP-1 cells; test: Activation of IFN-β secretion by THP-1 cells (Human IFN-beta ELISA); type: cell-based; settings: for EC50 / Activating effect on IFN-β secretion / STING agonist activity (in words): THP-1 cells; for EC50: 24 hours, IFN-β ELISA; for Activating effect on IFN-β secretion / STING agonist activity (in words): EC50 compared with 2′,3′-cGAMP and ADU-S100
Description: THP-1 cell, a human monocytic leukemia cell line, has the STING phenotype of HAQ type, i.e., R71H-G230A-R293Q. This assay used the Human IFN-beta DuoSet ELISA Kit from R & D (R & D, Cat #DY814-05) and the DuoSet ELISA Ancillary Reagent Kit 2 (R & D, Cat #DY008) to evaluate the activation of IFN-β secretion from THP-1 cells by representative compounds of the invention.
In thawing the THP-1 cells (ATCC #TIB-202), a cell freezing tube was quickly shaken in a water bath at 37° C. to thaw the cells within 1 min. The thawed cell suspension was taken and evenly mixed with an RPMI1640 medium (Hyclone, product #SH30027.01) containing 10% FBS (Life Technology, Cat #10099-141), centrifuged for 5 min at 1000 rpm, and the supernatant was discarded. The cell pellet was resuspended in 5 mL of the complete medium (RPMI 1640 medium containing 10% FBS), placed into a cell culture flask with a bottom area of 25 cm^2, and incubated in a cell incubator at 37° C., 5% CO2 and 95% humidity. When the cell confluence reached about 80%, the cells were passaged. All the cells in the culture flask were transferred to a 15 mL centrifuge tube, centrifuged for 5 min at 1000 rpm, and the supernatant was discarded. 5 mL of fresh complete medium was added to re-suspend the cell pellet, 1 mL of which was taken to place in a cell culture flask with a bottom area of 25 cm^2, supplemented with 4 mL of fresh complete medium for further incubation. When the cell confluence reached about 80% again, plating was conducted following the procedure of cell passage, retaining 1/5 cell suspension for further inculation and remaining 4/5 of the cell suspension in a 15 mL centrifuge tube. The cell suspension was centrifuged to discard the old culture medium, washed once using RPMI1640 culture medium (serum-free), and centrifuged to remove the supernatant. The cells were then re-suspended in RPMI1640 culture medium (serum-free). Cell viability was then detected by Trypan blue exclusion test and to be used for plating when the cell viability was confirmed to be more than 95%. A cell suspension with a density of 1.1×10^6 viable cells/mL was prepared using RPMI1640 culture medium (serum-free), and 180 μL of the cell suspension was added to a 96-well cell culture plate (NUNC Company, Cat #167008) so that the cell density in the plate was 2×10^5 viable cells/well.
as §1, with “the 5th” for “the 9th”, “the 6th” for “the 10th”, “PBS” for “PBS (Solarbio, Cat #P1020)”, “Finally, 20” for “Finally, 10”, “further 24” for “further 120”
ELISA detection was conducted referring to the instructions from R & D System, Cat #DY814-05.
ELISA plate coating: PBS (R & D System Cat #DY006) was used to dilute the capture antibody (mouse anti-human IFN-β capture antibody PART #844508) to provide the working concentration, and 100 μL capture antibody working solution was added to a 96-well ELISA plate which was then sealed and incubated overnight at room temperature. Upon discarding the capture antibody working solution, the cell plate was washed 3 times with a washing buffer (0.05% Tween-20 in PBS, pH 7.2-7.4, R & D System Cat #WA126) at 400 μL of the washing buffer per well, and the washing buffer was thoroughly removed after each washing, with the final washing to be completely removed of the wash buffer by inverting and claping the plate to a clean piece of paper. […]

CT26 cells [3] = test: Anti-tumor activity in bilateral transplantation tumor model of CT26 syngeneic mouse; type: in vivo, BALB/c mice; settings: Day 13 post-dose; 50 μg/mouse intratumorally right side, Day 0 and Day 4
Description: BALB/c mice of 6-8 weeks (purchased from Shanghai Ling Chang Biotech Co., Ltd.) were inoculated with 5×10^5 CT26 cells (supplied by Taicang Zexin Biotechnology Co., Ltd., ATCC #CRL-2638) subcutaneously on the left and right back dorsal, respectively, and the inoculation volume was 0.1 mL/side. When tumors grew to an average volume of 100 mm^3, they were randomized according to tumor size and mouse body weight and dosing was initiated. The day of the first dose was Day 0.
Two doses were administered on Day 0 and Day 4, with 50 μg of compound/mouse (i.e., 2.5 mg/kg) injected intratumorally right side, with the same volume of PBS (Hyclone, Cat #SH30258.01) as a control. The tumor on the left side was not treated. The control mice were sacrificed 13 days and the treated mice were sacrificed 21 days, after dosing. During the experiment, tumor volumes on the left and right sides and the body weights were measured 3 times per week, and the tumor volume was calculated as V=D×d×d/2 (where D represents length of tumor and d represents width of tumor).

Q: `Nc1ccn([C@@H]2O[C@@H]3CO[P@@](=O)(S)OC4[C@@H](CO[P@@](=O)(S)OC3C2(F)F)O[C@@H](n2ccc(N)nc2=O)C4(F)F)c(=O)n1` (stereo partly drawn) [Example 3, (3′,3′)-cyclo-(Rp,Rp)-bis-[3′-O-phosphorothioate-diester-2′-deoxy-2′,2′-difluorocytidine]] was tested. Which “Inhibitory potency on in vitro growth of CT26 tumor cells (in words)” value (CT26 cells [1]) did it give?
A: Its value is “particularly significant inhibitory potency”.

Q: What about the IC50 (CT26 cells [1]) of the same molecule?
A: The IC50 was under 1 µM.

Q: How did the IC50 (CT26 cells [1]) turn out when `Nc1nc(Cl)nc2c1ncn2[C@@H]1O[C@@H]2CO[P@@](=O)(S)OC3C(O)[C@@H](CO[P@@](=O)(S)OC2C1F)O[C@H]3n1cnc2c(N)ncnc21` (stereo partly drawn) [Example 5, (2′,3′)-cyclo-(Rp,Rp)-[2′-O-phosphorothioate-diester-adenosine]-[3′-O-phosphorothioate-diester-2-chloro-2′-deoxy-2′-fluoro-beta-adenosine] diammonium salt] was run?
A: The IC50 was 1 to 10 µM.

Q: And the EC50 ([2]; Homo sapiens, THP-1, 24 h)?
A: The EC50 was 10.1 to 100 µM.

Q: With `Nc1ncnc2c1ncn2[C@@H]1O[C@@H]2CO[P@@](=O)(S)OC3C(F)[C@H](n4cnc5c(N)nc(Cl)nc54)O[C@@H]3CO[P@@](=O)(S)OC2C1O` (stereo partly drawn) [Example 7, (3′,3′)-cyclo-(Rp,Rp)-[3′-O-phosphorothioate-diester-adenosine]-[3′-O-phosphorothioate-diester-2-chloro-2′-deoxy-2′-fluoro-beta-adenosine] diammonium salt] as the molecule, how does the IC50 (CT26 cells [1]) read?
A: The IC50 was 1 to 10 µM.

Q: `Nc1nc2c(ncn2[C@@H]2O[C@@H]3CO[P@@](=O)(S)OC4C[C@H](n5cnc6c(N)nc(Cl)nc65)O[C@@H]4CO[P@@](=O)(S)OC2C3O)c(=O)[nH]1` (stereo partly drawn) [Example 12, (2′,3′)-cyclo-(Rp,Rp)-[2′-O-phosphorothioate-diester-guanosine]-[3′-O-phosphorothioate-diester-2-chloro-2′-deoxy-adenosine] diammonium salt] was tested. Which IC50 (CT26 cells [1]) did it give?
A: The IC50 was 1 to 10 µM.

Q: What about the EC50 ([2]; Homo sapiens, THP-1, 24 h) of the same molecule?
A: The EC50 was 1 to 10 µM.

Q: And the “Activating effect on IFN-β secretion / STING agonist activity (in words)” value [2]?
A: The value was “significant STING agonist activity”.

Q: And the “Growth inhibition rate, untreated left tumor” value (CT26 cells [3])?
A: The value was 75.3%.

Q: Which IC50 (CT26 cells [1]) does the source give for `Nc1ccn([C@@H]2O[C@@H]3CO[P@@](=O)(S)O[C@H]4C(O)[C@@H](CO[P@@](=O)(S)O[C@@H]3C2(F)F)O[C@H]4n2cnc3c(=O)[nH]c(N)nc32)c(=O)n1` (stereo partly drawn) [Example 13, (2′,3′)-cyclo-(Rp,Rp)-[2′-O-phosphorothioate-diester-guanosine]-[3′-O-phosphorothioate-diester-2′-deoxy-2′,2′-difluorocytidine]diammonium salt] here?
A: The IC50 was under 1 µM.

Q: What about the EC50 ([2]; Homo sapiens, THP-1, 24 h) of the same molecule?
A: Its EC50 is 10.1 to 100 µM.

Q: Which IC50 (CT26 cells [1]) does the source give for `Nc1nc2c(ncn2[C@@H]2O[C@@H]3CO[P@@](=O)(S)OC4C(F)[C@H](n5cnc6c(N)nc(Cl)nc65)O[C@@H]4CO[P@](=O)(S)OC3C2O)c(=O)[nH]1` (stereo partly drawn) [Example 16, (3′,3′)-cyclo-(Rp,Rp)-[3′-O-phosphorothioate-diester-guanosine]-[3′-O-phosphorothioate-diester-2-chloro-2′-deoxy-2′-fluoro-beta-adenosine] diammonium salt] here?
A: The IC50 was 1 to 10 µM.

Q: What about the EC50 ([2]; diammonium salt) of the same molecule?
A: Its EC50 is 1 to 10 µM.

Q: What about the “Activating effect on IFN-β secretion / STING agonist activity (in words)” value [2] of the same molecule?
A: Its value is “significant STING agonist activity”.

Q: What about the “Highest concentration of IFN-β secreted by stimulated THP-1 cells” value ([2]; compared with ADU-S100) of the same molecule?
A: The value was “higher than that of ADU-S100”.

Q: And the “Growth inhibition rate, untreated left tumor” value (CT26 cells [3])?
A: The value was 71.7%.

Q: How did the IC50 (CT26 cells [1]) turn out when `Nc1ccn([C@@H]2O[C@H](CO)[C@@H](O)C2(F)F)c(=O)n1` [Gemcitabine, gemcitabine, reference compound] was run?
A: The IC50 was under 1 µM.

Q: How did the IC50 (CT26 cells [1]) turn out when `CCCC(CCC)C(=O)Nc1ccn([C@@H]2O[C@H](CO)[C@@H](O)C2(F)F)c(=O)n1` [LY2334737, N4-(2-propylpentanoyl)-2′-deoxy-2′,2′-difluorocytidine, reference compound] was run?
A: Its IC50 is 1 to 10 µM.

From patent publication US20240059729A1, “MULTIFUNCTIONAL CYCLIC DINUCLEOTIDE AND USE THEREOF” (TYLIGAND BIOSCIENCE (SHANGHAI) LIMITED, priority 2020, published 2024)
